Measurements from ChEMBL document CHEMBL5532698, “2,3-Dihydroquinazolin-4(1H)-ones and quinazolin-4(3H)-ones as broad-spectrum cytotoxic agents and their impact on tubulin polymerisation” (RSC Med Chem, 2024).

Tests used:
[1] = test system: BE(2)-C; assay: Antiproliferative activity against human BE2C cells assessed as cell growth inhibition at 25 uM incubated for 72 hrs by MTT assay relative to control; type: functional
[2] = test system: MIA PaCa-2; assay: Antiproliferative activity against human MIA PaCa-2 cells assessed as cell growth inhibition at 25 uM incubated for 72 hrs by MTT assay relative to control; type: functional
[3] = Antiproliferative activity against human SJG2 cells assessed as cell growth inhibition at 25 uM incubated for 72 hrs by MTT assay relative to control; type: functional; settings: SJ-G2
[4] = test system: NCI-H460; assay: Antiproliferative activity against human NCI-H460 cells assessed as cell growth inhibition at 25 uM incubated for 72 hrs by MTT assay relative to control; type: functional
[5] = test system: A-431; assay: Antiproliferative activity against human A-431 cells assessed as cell growth inhibition at 25 uM incubated for 72 hrs by MTT assay relative to control; type: functional
[6] = test system: U-87 MG; assay: Antiproliferative activity against human U87 cells assessed as cell growth inhibition at 25 uM incubated for 72 hrs by MTT assay relative to control; type: functional, U-87MG ATCC
[7] = Cytotoxicity against human MCF-10A cells assessed as cell growth inhibition at 25 uM incubated for 72 hrs by MTT assay relative to control; type: toxicity, cell-based
[8] = test system: A2780; assay: Antiproliferative activity against human A2780 cells assessed as cell growth inhibition at 25 uM incubated for 72 hrs by MTT assay relative to control; type: functional
[9] = test system: DU-145; assay: Antiproliferative activity against human DU-145 cells assessed as cell growth inhibition at 25 uM incubated for 72 hrs by MTT assay relative to control; type: functional
[10] = test system: MCF7; assay: Antiproliferative activity against human MCF7 cells assessed as cell growth inhibition at 25 uM incubated for 72 hrs by MTT assay relative to control; type: functional
[11] = test system: HT-29; assay: Antiproliferative activity against human HT-29 cells assessed as cell growth inhibition at 25 uM incubated for 72 hrs by MTT assay relative to control; type: functional

Row | SMILES | inhibition at 25 µM [1] [%] | inhibition at 25 µM [2] [%] | inhibition at 25 µM [3] [%] | inhibition at 25 µM [4] [%] | inhibition at 25 µM [5] [%] | inhibition at 25 µM [6] [%] | inhibition at 72 h, 25 µM [7] [%] | inhibition at 25 µM [8] [%] | inhibition at 25 µM [9] [%] | inhibition at 25 µM [10] [%] | inhibition at 25 µM [11] [%]
1 | O=C1NC(c2c[nH]c3ccccc23)Nc2ccccc21 (stereo not given) | 89 | 79 | > 100 | 87 | ≥ 79 | 70 | 90 | 94 | ≥ 77 | 78 | ≥ 84
2 | O=C(O)c1cccc(C2NC(=O)c3ccccc3N2)c1 (stereo not given) | 12 | 13 | 12 | 12 | < 10 | 10 | 22 | 10 | 31 | 43 | 24
3 | O=c1[nH]c(-c2ccccc2Br)nc2ccccc12 | 23 | 24 | 11 | 20 | 12 | 14 | 17 | 13 | 25 | 10 | 15
4 | N#Cc1cccc(C2NC(=O)c3ccccc3N2)c1 (stereo not given) | 20 | 14 | 18 | 17 | 34 | 19 | 12 | 54 | 26 | 60 | 31
5 | O=C1NC(c2ccc(Br)o2)Nc2ccccc21 (stereo not given) | 20 | < 10 | 12 | < 10 | < 10 | < 10 | < 10 | 37 | < 10 | 13 | < 10
6 | O=C1NC(C2CCCC2)Nc2ccccc21 (stereo not given) | 20 | 19 | < 10 | < 10 | 15 | 11 | 12 | 39 | 22 | 35 | 22
7 | O=C1NC(c2cccnc2)Nc2ccccc21 (stereo not given) | < 10 | 11 | < 10 | < 10 | < 10 | < 10 | < 10 | < 10 | < 10 | 21 | < 10
8 | O=C1NC(c2ccccc2[N+](=O)[O-])Nc2ccccc21 (stereo not given) | < 10 | 21 | 33 | 35 | 36 | 16 | 16 | 33 | 27 | 16 | 28
9 | O=C(O)c1ccc(C2NC(=O)c3ccccc3N2)cc1 (stereo not given) | 12 | 14 | 10 | < 10 | < 10 | 13 | 8 | < 10 | 36 | 41 | 18
10 | Oc1nc(-c2ccncc2)nc2ccccc12 | < 10 | 10 | < 10 | 15 | < 10 | < 10 | < 10 | < 10 | < 10 | < 10 | 11
